Earlier results in paper PMC7395068, “The evolution of strategies to minimise the risk of human drug-induced liver injury (DILI) in drug discovery and development” (Archives of Toxicology, 2020).
Where two headings read alike, the source gives them in different places.

Legend:
[1] = cited from earlier work
HepG2 cells [2] = settings: cited from earlier work
[3] = cited from earlier work; remark: listed apart in the source
human hepatocytes = settings: cited from earlier work
HepG2 cells [4] = settings: cited from earlier work; remark: listed apart in the source
[5] = system: THLE or HepG2 cells, isolated mitochondria, BSEP; settings: cited from earlier work
[6] = In vitro Assay, ref O'Brien 2006
[7] = assignment in O'Brien 2006, ref O'Brien 2006

For `CN(N=O)C(=O)N[C@@H](C=O)[C@@H](O)[C@H](O)[C@H](O)CO` [streptozocin], the “DILI +VE (5-8), DILI -VE (-4)” value ([1]; ref Chen 2016) is given as “-VE”, the DILI severity category ([1]; ref Chen 2016) is given as “Ambiguous DILI-concern” and the “Structural based (HCI)” value (HepG2 cells [2]; [6]) is given as “-VE”. The “In vivo DILI” value ([3]; ref O'Brien 2006) was “-VE”.

In the case of `CCNC(C)Cc1cccc(C(F)(F)F)c1` (centres unmarked) [fenfluramine], the “Structural based (HCI)” value (HepG2 cells [2]; [6]) is given as “-VE” and the “In vivo DILI” value ([3]; ref O'Brien 2006) is given as “-VE”.

For `O=C(O)c1ccccc1Nc1cccc(C(F)(F)F)c1` [flufenamate], the “Structural based (HCI)” value (HepG2 cells [2]; [6]) is listed as “+VE (lowest HCI endpoint IC50 (or in the absence of dose–response < 100 µM) < 30 × total human plasma exposure levels (Cmax.tot))” and the “In vivo DILI” value ([3]; ref O'Brien 2006) is listed as “-VE”.

In the case of `CN[C@H](CC(C)C)C(=O)N[C@H]1C(=O)N[C@@H](CC(N)=O)C(=O)N[C@H]2C(=O)N[C@H]3C(=O)N[C@H](C(=O)N[C@H](C(=O)O)c4cc(O)cc(O)c4-c4cc3ccc4O)[C@H](O)c3ccc(c(Cl)c3)Oc3cc2cc(c3O[C@@H]2O[C@H](CO)[C@@H](O)[C@H](O)[C@H]2O[C@H]2C[C@](C)(N)[C@H](O)[C@H](C)O2)Oc2ccc(cc2Cl)[C@H]1O` [vancomycin], the “DILI +VE (5-8), DILI -VE (-4)” value ([1]; in vivo) is listed as “+VE”, the DILI severity category ([1]; in vivo) is listed as “vLess-DILI-Concern” and the “Structural based (HCI)” value (human hepatocytes) is listed as “+VE”. For the same compound, the Cluser analysis (HepG2 cells [4]) was “-VE”, the “Partition Hybrid HRM Score” value [5] was “+VE” and the “Ro2 Hybrid HRM Score” value [5] was “-VE”.

In the case of `CCn1cc(C(=O)O)c(=O)c2cc(F)c(N3CCNCC3)cc21` [norfloxacin], the “DILI +VE (5-8), DILI -VE (-4)” value ([1]; ref Chen 2016) is given as “+VE”, the DILI severity category ([1]; ref Chen 2016) is given as “vLess-DILI-Concern” and the “Structural based (HCI)” value (HepG2 cells [2]; [6]) is given as “+VE (lowest HCI endpoint IC50 (or in the absence of dose–response < 100 µM) < 30 × total human plasma exposure levels (Cmax.tot))”. The “In vivo DILI” value ([3]; ref O'Brien 2006) was “+VE”.

For `FC(F)(F)C(Cl)Br` (centres unmarked) [halothane], the “Structural based (HCI), In vitro Assay” value (HepG2 cells [2]; HepG2 HCI, ref O'Brien 2006) is given as “+VE” and the “In vivo DILI” value [3, 7] is given as “-VE”.

In the case of `COCc1c(C(C)C)nc(C(C)C)c(/C=C/[C@@H](O)C[C@@H](O)CC(=O)O)c1-c1ccc(F)cc1` [cerivastatin], the “Structural based (HCI)” value (HepG2 cells [2]) is given as “+VE (key: +VE: lowest HCI endpoint IC50 (or in the absence of dose–response < 100 µM) < 30 × total human plasma exposure levels (Cmax.tot))” and the “In vivo DILI” value ([3]; ref O'Brien 2006) is given as “+VE”.

In the case of `NS(=O)(=O)Cc1noc2ccccc12` [zonisamide], the “DILI +VE (5-8), DILI -VE (-4)” value ([1]; ref Chen 2016) is given as “+VE”, the DILI severity category ([1]; ref Chen 2016) is given as “vLess-DILI-Concern” and the “Structural based (HCI)” value (HepG2 cells [2]; [6]) is given as “+VE (lowest HCI endpoint IC50 (or in the absence of dose–response < 100 µM) < 30 × total human plasma exposure levels (Cmax.tot))”. The “In vivo DILI” value ([3]; ref O'Brien 2006) was “-VE”.

For `Nc1ccc(S(=O)(=O)NC(=O)c2ccccc2)cc1` [sulfabenzamide], the “Structural based (HCI), In vitro Assay” value (HepG2 cells [2]; HepG2 HCI, ref O'Brien 2006) is given as “-VE” and the “In vivo DILI” value [3, 7] is given as “-VE”.

For `Cc1scc2c1N(C(=O)CN1CCN(C)CC1)c1ccccc1NC2=O` [telenzipine], the “Structural based (HCI), In vitro Assay” value (HepG2 cells [2]; HepG2 HCI, ref O'Brien 2006) is listed as “-VE” and the “In vivo DILI” value [3, 7] is listed as “-VE”.

For `[Cl-].[Na+]` [sodium chloride], the “Structural based (HCI), In vitro Assay” value (HepG2 cells [2]) is given as “+VE” and the “In vivo DILI” value ([3]; in vivo) is given as “-VE”.

In the case of `CC(C)(O/N=C(\C(=O)N[C@@H]1C(=O)N2C(C(=O)[O-])=C(C[n+]3ccccc3)CS[C@H]12)c1csc(N)n1)C(=O)O` [ceftazidime], the “DILI +VE (5-8), DILI -VE (-4)” value ([1]; ref Chen 2016) is given as “+VE”, the DILI severity category ([1]; ref Chen 2016) is given as “vLess-DILI-Concern” and the “Structural based (HCI)” value (HepG2 cells [2]; [6]) is given as “+VE (lowest HCI endpoint IC50 (or in the absence of dose–response < 100 µM) < 30 × total human plasma exposure levels (Cmax.tot))”. For the same compound, the “In vivo DILI” value ([3]; […]) was “+VE” and the “In vivo DILI” value ([3]; ref O'Brien 2006) was “+VE”.

In the case of `CCN(CC)CCNC(=O)c1cc(Cl)c(N)cc1OC` [metoclopramide], the “DILI +VE (5-8), DILI -VE (-4)” value ([1]; in vivo) is given as “+VE”, the DILI severity category ([1]; in vivo) is given as “vLess-DILI-Concern” and the “Structural based (HCI)” value (HepG2 cells [2]) is given as “-VE”.

In the case of `CC(C(=O)O)c1ccc(N2Cc3ccccc3C2=O)cc1` (centres unmarked) [indoprofen], the “Structural based (HCI), In vitro Assay” value (HepG2 cells [2]; HepG2 HCI, ref O'Brien 2006) is given as “+VE” and the “In vivo DILI” value [3, 7] is given as “-VE”.

In the case of `Oc1c(I)cc(Cl)c2cccnc12` [clioquinol], the “Structural based (HCI)” value (HepG2 cells [2]; [6]) is listed as “+VE (lowest HCI endpoint IC50 (or in the absence of dose–response < 100 µM) < 30 × total human plasma exposure levels (Cmax.tot))” and the “In vivo DILI” value ([3]; ref O'Brien 2006) is listed as “-VE”.
